Experimental data: paper PMC4286029 (Inflammation Research, 2014)

Tests used:
[1] = target: T1, Abl (Homo sapiens, UniProt P00519); experiment: KinaseProfiler selectivity: Abl; format: biochemical
T1 construct: purchased Millipore Co. Ltd. (KinaseProfiler service)
Experimental: (§1) […]; The selectivity of JTE-052 for other kinases was assessed using KinaseProfiler™ (Millipore Co. Ltd.). […].

[2] = target: T2, c-RAF (Homo sapiens, UniProt P04049); experiment: KinaseProfiler selectivity: c-RAF; format: biochemical
T2 construct: purchased Millipore Co. Ltd. (KinaseProfiler service)
Experimental: as §1

[3] = target: T3, cSRC (Homo sapiens, UniProt P12931); experiment: KinaseProfiler selectivity: cSRC; format: biochemical
T3 construct: purchased Millipore Co. Ltd. (KinaseProfiler service)
Experimental: as §1

[4] = target: T4, EGFR (Homo sapiens, UniProt P00533); experiment: KinaseProfiler selectivity: EGFR; format: biochemical
T4 construct: purchased Millipore Co. Ltd. (KinaseProfiler service)
Experimental: as §1

[5] = target: T5, FGFR1 (Homo sapiens, UniProt P11362); experiment: KinaseProfiler selectivity: FGFR1; format: biochemical
T5 construct: purchased Millipore Co. Ltd. (KinaseProfiler service)
Experimental: as §1

[6] = target: T6, IR (Homo sapiens, UniProt P06213); experiment: KinaseProfiler selectivity: IR; format: biochemical
T6 construct: purchased Millipore Co. Ltd. (KinaseProfiler service)
Experimental: as §1

[7] = target: T7, Lck (Homo sapiens, UniProt P06239); experiment: KinaseProfiler selectivity: Lck; format: biochemical
T7 construct: purchased Millipore Co. Ltd. (KinaseProfiler service)
Experimental: as §1

[8] = target: T8, MAPK2 (Homo sapiens, UniProt P28482); experiment: KinaseProfiler selectivity: MAPK2; format: biochemical
T8 construct: purchased Millipore Co. Ltd. (KinaseProfiler service)
Experimental: as §1

[9] = target: T9, MAPKAP-K2 (Homo sapiens, UniProt P49137); experiment: KinaseProfiler selectivity: MAPKAP-K2; format: biochemical
T9 construct: purchased Millipore Co. Ltd. (KinaseProfiler service)
T9 sequence (P49137 whole entry, species assumed): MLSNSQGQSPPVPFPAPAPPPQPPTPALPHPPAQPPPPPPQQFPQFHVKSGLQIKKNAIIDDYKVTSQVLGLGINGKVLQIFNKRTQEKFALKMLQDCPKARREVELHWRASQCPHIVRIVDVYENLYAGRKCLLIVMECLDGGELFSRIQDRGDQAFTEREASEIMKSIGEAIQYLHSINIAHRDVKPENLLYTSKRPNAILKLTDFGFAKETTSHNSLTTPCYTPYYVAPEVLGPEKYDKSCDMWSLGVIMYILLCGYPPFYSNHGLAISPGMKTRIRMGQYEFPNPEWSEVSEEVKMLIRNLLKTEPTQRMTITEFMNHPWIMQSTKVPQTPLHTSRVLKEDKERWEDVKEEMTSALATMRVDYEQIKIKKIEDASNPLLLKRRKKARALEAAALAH
Experimental: as §1

[10] = target: T10, Met (Homo sapiens, UniProt P08581); experiment: KinaseProfiler selectivity: Met; format: biochemical
T10 construct: purchased Millipore Co. Ltd. (KinaseProfiler service)
T10 sequence (P08581 25-1390): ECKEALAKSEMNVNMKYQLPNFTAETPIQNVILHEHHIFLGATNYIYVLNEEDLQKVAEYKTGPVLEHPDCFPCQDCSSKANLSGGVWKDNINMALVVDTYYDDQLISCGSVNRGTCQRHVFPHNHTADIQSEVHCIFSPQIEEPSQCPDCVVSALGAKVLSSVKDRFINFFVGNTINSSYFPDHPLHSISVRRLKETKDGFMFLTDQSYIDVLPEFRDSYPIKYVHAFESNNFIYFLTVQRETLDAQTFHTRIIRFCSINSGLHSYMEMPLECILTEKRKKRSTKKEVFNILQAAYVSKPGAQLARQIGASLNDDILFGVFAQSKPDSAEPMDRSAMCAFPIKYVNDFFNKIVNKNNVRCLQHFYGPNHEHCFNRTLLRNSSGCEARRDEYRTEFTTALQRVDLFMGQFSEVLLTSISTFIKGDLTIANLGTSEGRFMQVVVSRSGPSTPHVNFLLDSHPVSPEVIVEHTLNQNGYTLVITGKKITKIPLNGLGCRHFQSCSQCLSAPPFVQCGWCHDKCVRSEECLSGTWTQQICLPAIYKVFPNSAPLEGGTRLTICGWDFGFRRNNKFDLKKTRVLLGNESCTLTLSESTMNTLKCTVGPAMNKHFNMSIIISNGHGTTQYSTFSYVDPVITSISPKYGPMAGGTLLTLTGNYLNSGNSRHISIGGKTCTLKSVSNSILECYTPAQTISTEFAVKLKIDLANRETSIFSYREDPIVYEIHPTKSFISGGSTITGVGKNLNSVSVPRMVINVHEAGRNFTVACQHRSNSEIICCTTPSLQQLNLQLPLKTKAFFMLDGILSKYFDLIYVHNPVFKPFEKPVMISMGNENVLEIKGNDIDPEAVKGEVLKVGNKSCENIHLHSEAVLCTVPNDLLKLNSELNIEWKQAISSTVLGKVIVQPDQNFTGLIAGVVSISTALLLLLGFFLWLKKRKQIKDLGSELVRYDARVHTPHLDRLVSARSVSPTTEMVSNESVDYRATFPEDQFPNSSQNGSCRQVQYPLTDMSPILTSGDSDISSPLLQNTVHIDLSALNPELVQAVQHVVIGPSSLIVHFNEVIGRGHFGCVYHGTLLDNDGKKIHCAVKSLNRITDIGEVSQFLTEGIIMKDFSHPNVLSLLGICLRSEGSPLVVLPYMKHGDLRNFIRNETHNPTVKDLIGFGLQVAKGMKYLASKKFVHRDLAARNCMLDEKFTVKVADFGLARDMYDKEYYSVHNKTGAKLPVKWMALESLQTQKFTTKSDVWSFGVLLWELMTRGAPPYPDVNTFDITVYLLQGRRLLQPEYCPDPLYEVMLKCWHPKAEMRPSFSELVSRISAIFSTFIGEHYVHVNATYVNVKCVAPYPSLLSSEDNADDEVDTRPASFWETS
Experimental: as §1

[11] = target: T11, MSK1 (Homo sapiens, UniProt O75582); experiment: KinaseProfiler selectivity: MSK1; format: biochemical
T11 construct: purchased Millipore Co. Ltd. (KinaseProfiler service)
Experimental: as §1

[12] = target: T12, p70S6 K (Homo sapiens, UniProt P23443); experiment: KinaseProfiler selectivity: p70S6 K; format: biochemical
T12 construct: purchased Millipore Co. Ltd. (KinaseProfiler service)
Experimental: as §1

[13] = target: T13, PDGFRβ (Homo sapiens, UniProt P09619); experiment: KinaseProfiler selectivity: PDGFRβ; format: biochemical
T13 construct: purchased Millipore Co. Ltd. (KinaseProfiler service)
T13 sequence (P09619 33-1106, species assumed): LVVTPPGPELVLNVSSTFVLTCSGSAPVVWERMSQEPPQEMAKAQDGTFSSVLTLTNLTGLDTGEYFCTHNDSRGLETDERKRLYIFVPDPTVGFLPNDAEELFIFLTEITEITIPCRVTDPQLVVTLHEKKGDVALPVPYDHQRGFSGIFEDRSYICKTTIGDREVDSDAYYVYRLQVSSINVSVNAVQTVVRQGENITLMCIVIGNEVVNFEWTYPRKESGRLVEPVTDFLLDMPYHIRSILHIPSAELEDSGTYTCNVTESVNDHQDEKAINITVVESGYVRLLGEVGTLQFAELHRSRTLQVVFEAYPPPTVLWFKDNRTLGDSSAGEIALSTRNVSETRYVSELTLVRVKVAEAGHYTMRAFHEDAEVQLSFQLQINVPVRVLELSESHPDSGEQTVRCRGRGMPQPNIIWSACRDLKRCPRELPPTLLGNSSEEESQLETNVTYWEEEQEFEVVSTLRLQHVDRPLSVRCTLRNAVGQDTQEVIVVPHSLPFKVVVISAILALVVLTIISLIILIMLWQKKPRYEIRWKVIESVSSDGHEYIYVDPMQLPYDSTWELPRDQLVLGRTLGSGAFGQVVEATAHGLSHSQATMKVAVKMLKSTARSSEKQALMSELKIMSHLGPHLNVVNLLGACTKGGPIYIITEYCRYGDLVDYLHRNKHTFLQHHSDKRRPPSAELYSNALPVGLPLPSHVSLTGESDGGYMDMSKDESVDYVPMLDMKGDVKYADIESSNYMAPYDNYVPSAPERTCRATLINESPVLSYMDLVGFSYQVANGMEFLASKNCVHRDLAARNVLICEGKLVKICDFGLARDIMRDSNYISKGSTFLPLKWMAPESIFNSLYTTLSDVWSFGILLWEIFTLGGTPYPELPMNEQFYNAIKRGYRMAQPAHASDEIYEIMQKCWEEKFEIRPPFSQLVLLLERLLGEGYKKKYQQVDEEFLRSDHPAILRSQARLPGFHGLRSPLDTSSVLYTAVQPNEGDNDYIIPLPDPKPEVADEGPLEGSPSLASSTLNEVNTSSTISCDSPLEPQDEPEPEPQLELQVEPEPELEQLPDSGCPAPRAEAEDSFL
Experimental: as §1

[14] = target: T14, PKA (Homo sapiens, UniProt P17612); experiment: KinaseProfiler selectivity: PKA; format: biochemical
T14 construct: purchased Millipore Co. Ltd. (KinaseProfiler service)
Experimental: as §1

[15] = target: T15, PKBα (Homo sapiens, UniProt P31749); experiment: KinaseProfiler selectivity: PKBα; format: biochemical
T15 construct: purchased Millipore Co. Ltd. (KinaseProfiler service)
Experimental: as §1

[16] = target: T16, PKCα (Homo sapiens, UniProt P17252); experiment: KinaseProfiler selectivity: PKCα; format: biochemical
T16 construct: purchased Millipore Co. Ltd. (KinaseProfiler service)
Experimental: as §1

[17] = target: T17, PKCβI (Homo sapiens, UniProt P05771); experiment: KinaseProfiler selectivity: PKCβI; format: biochemical
T17 construct: purchased Millipore Co. Ltd. (KinaseProfiler service)
Experimental: as §1

[18] = target: T18, PKCγ (Homo sapiens, UniProt P05129); experiment: KinaseProfiler selectivity: PKCγ; format: biochemical
T18 construct: purchased Millipore Co. Ltd. (KinaseProfiler service)
Experimental: as §1

[19] = target: T19, SAPK2b (Homo sapiens, UniProt Q15759); experiment: KinaseProfiler selectivity: SAPK2b; format: biochemical
T19 construct: purchased Millipore Co. Ltd. (KinaseProfiler service)
Experimental: as §1

[20] = target: T20, SAPK3 (Homo sapiens, UniProt P53778); experiment: KinaseProfiler selectivity: SAPK3; format: biochemical
T20 construct: purchased Millipore Co. Ltd. (KinaseProfiler service)
Experimental: as §1

[21] = target: T21, Syk (Homo sapiens, UniProt P43405); experiment: KinaseProfiler selectivity: Syk; format: biochemical
T21 construct: purchased Millipore Co. Ltd. (KinaseProfiler service)
Experimental: as §1

[22] = target: T22, Tie2 (Homo sapiens, UniProt Q02763); experiment: KinaseProfiler selectivity: Tie2; format: biochemical
T22 construct: purchased Millipore Co. Ltd. (KinaseProfiler service)
Experimental: as §1

[23] = target: T23, ZAP-70 (Homo sapiens, UniProt P43403); experiment: KinaseProfiler selectivity: ZAP-70; format: biochemical
T23 construct: purchased Millipore Co. Ltd. (KinaseProfiler service)
T23 sequence (P43403 whole entry): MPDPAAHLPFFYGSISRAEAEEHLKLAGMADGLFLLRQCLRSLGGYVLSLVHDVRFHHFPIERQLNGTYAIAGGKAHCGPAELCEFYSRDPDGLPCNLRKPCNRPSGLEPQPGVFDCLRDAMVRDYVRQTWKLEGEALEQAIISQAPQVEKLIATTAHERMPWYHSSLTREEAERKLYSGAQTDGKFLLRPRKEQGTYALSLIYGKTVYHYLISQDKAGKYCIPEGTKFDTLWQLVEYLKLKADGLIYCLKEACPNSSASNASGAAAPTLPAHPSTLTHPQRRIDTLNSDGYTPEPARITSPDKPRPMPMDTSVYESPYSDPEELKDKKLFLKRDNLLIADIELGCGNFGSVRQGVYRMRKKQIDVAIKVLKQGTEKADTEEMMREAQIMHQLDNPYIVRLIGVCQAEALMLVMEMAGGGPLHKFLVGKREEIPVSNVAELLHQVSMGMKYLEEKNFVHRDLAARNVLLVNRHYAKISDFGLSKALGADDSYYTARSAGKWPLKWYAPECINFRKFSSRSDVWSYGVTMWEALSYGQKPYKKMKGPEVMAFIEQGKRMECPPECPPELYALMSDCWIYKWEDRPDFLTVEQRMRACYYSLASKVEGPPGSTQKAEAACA
Experimental: as §1

[24] = system: kinases in KinaseProfiler; experiment: KinaseProfiler panel as a whole (selectivity for other kinases); format: biochemical; details: concentration of 1,000 nM
Experimental: as §1

[25] = system: GM-CSF signaling (JAK2/JAK2), Stat5 phosphorylation in hPBMCs; experiment: cells; details: Homo sapiens, 0.25 h, read-out: IC50, GM-CSF cytokine signaling (JAK2/JAK2)
Experimental: (§2) hPBMCs (3 × 10^6 cells/tube) were incubated with a test compound for 30 min at 37 °C, and then treated with IL-2 (100 ng/mL), IL-6 (100 ng/mL), IL-23 (100 ng/mL), IFN-α (100 ng/mL), or GM-CSF (1 ng/mL) for an additional 15 min. To terminate the stimulation, the cells were fixed with Fixation Buffer (BD Biosciences) for 10 min at 37 °C. The fixed cells were incubated with Perm Buffer II (BD Biosciences) for 30 min on ice and then incubated with fluorochrome-labeled anti-CD3, anti-CD4, or anti-phospho-Stat antibodies for 30 min at room temperature. The cytokine-induced Stat phosphorylation was analyzed and quantified using a Cytomics FC500 (Beckman Coulter Inc., Brea, CA). In the case of IL-23 stimulation, hPBMCs were precultured with 10 μg/mL phytohemagglutinin (PHA)-M (Sigma-Aldrich Co.) for 3 days to enhance their response to IL-23.
(§3) The phosphorylation levels of Stat5 (IL-2 and GM-CSF), Stat3 (IL-6 and IL-23), or Stat1 (IFN-α) in CD3^+CD4^+ cells (IL-2, IL-23, and IFN-α) or CD3^-CD4^+ cells (IL-6 and GM-CSF) were analyzed by flow cytometry. Data are presented as percentages of mean fluorescence intensity relative to vehicle (100 %) and non-stimulated control cells (0 %). Values are mean ± SEM. Three independent experiments were performed

[26] = system: IFN-α signaling (JAK1/Tyk2), Stat1 phosphorylation in hPBMCs; experiment: cells; details: Homo sapiens, 0.25 h, read-out: IC50, IFN-α cytokine signaling (JAK1/Tyk2)
Experimental: as §2, §3

[27] = system: IL-2 signaling (JAK1/JAK3), Stat5 phosphorylation in hPBMCs; experiment: cells; details: Homo sapiens, 0.25 h, read-out: IC50, IL-2 cytokine signaling (JAK1/JAK3)
Experimental: as §2, §3

[28] = system: IL-23 signaling (JAK2/Tyk2), Stat3 phosphorylation in hPBMCs; experiment: cells; details: Homo sapiens, 0.25 h, read-out: IC50, IL-23 cytokine signaling (JAK2/Tyk2)
Experimental: as §2, §3

[29] = system: IL-6 signaling (JAK1/JAK2), Stat3 phosphorylation in hPBMCs; experiment: cells; details: Homo sapiens, 0.25 h, read-out: IC50, IL-6 cytokine signaling (JAK1/JAK2)
Experimental: as §2, §3

[30] = system: human mast cells; details: Mast cell, read-out: IC50, IL-4 priming of Fcε receptor-dependent TNF-α production in mast cells
Experimental: The cells were then replated at 1.2 × 10^5 cells/well and cultured with 1 μg/mL anti-IgE for an additional 5 h at 37 °C. The supernatants were collected, and secretion of TNF-α was measured by ELISA.

[31] = Cytotoxicity: fibroblast (NHLF) proliferation ([3H]thymidine); details: human, normal human lung fibroblasts (NHLF)
Experimental: For determination of cytotoxicity, fibroblast proliferation was measured.

## C[C@H]1CN(C(=O)CC#N)[C@]12CCN(c1ncnc3[nH]ccc13)C2 [JTE-052]
[1]
  IC50: > 1000 nM
[2]
  IC50: > 1000 nM
[3]
  IC50: > 1000 nM
[4]
  IC50: > 1000 nM
[5]
  IC50: > 1000 nM
[6]
  IC50: > 1000 nM
[7]
  IC50: > 1000 nM
[8]
  IC50: > 1000 nM
[9]
  IC50: > 1000 nM
[10]
  IC50: > 1000 nM
[11]
  IC50: > 1000 nM
[12]
  IC50: > 1000 nM
[13]
  IC50: > 1000 nM
[14]
  IC50: > 1000 nM
[15]
  IC50: > 1000 nM
[16]
  IC50: > 1000 nM
[17]
  IC50: > 1000 nM
[18]
  IC50: > 1000 nM
[19]
  IC50: > 1000 nM
[20]
  IC50: > 1000 nM
[21]
  IC50: > 1000 nM
[22]
  IC50: > 1000 nM
[23]
  IC50: > 1000 nM
[24]
  inhibition of other kinases in KinaseProfiler: did not inhibit any of the kinases even at the concentration of 1,000 nM, except for ROCK-II
[25]
  IC50: 304 ± 22 nM
[26]
  IC50: 18 ± 3 nM
[27]
  IC50: 40 ± 9 nM
[28]
  IC50: 84 ± 11 nM
[29]
  IC50: 33 ± 14 nM
[30]
  IC50: 133 ± 18 nM
[31]
  IC50 at 3 days: > 10000 nM
